US20180057467A1, “NOVEL TRIAZOLE DERIVATIVES” (BAYER CROPSCIENCE AKTIENGESELLSCHAFT, priority 2015, published 2018)

Tests used:
Phakopsora pachyrhizi = test: Example U: in vivo preventive test on Phakopsora test (soybeans), comparison vs. known compounds; settings: rate of application 5 ppm, evaluated 7 days after inoculation
Method: Example U: In Vivo Preventive Test on Phakopsora Test (Soybeans); Comparison of Compounds According to the Invention Vs. Known Compounds
After the spray coating has dried on, the plants are inoculated with an aqueous spore suspension of the causal agent of soybean rust (Phakopsora pachyrhizi) and stay for 24 h without light in an incubation cabinet at approximately 24° C. and a relative atmospheric humidity of 95%.
The plants remain in the incubation cabinet at approximately 24° C. and a relative atmospheric humidity of approximately 80% and a day/night interval of 12 h.
The test is evaluated 7 days after the inoculation.

Venturia inaequalis = test: Example T: in vivo preventive test on Venturia test (apples), comparison vs. known compounds; settings: rate of application 10 ppm, evaluated 10 days after inoculation
Method: Example T: In Vivo Preventive Test on Venturia Test (Apples) Comparison of Compounds According to the Invention Vs. Known Compounds
The plants are then placed in a greenhouse at approximately 21° C. and a relative atmospheric humidity of approximately 90%.
The test is evaluated 10 days after the inoculation.

[1] = LogP by HPLC on reversed phase columns (EEC directive 79/831 Annex V.A8); assay type: physicochemical; settings: LogP
Method: [table] If more than one Log P value is available within the same method, all the values are given and separated by “+”. […] Lambda-max-values were determined using UV-spectra from 200 nm to 400 nm and the peak values of the chromatographic signals.

For `OC(Cn1cncn1)(c1ccc(F)cc1F)C1(Oc2c(F)cc(Cl)cc2F)CC1` (racemic) [Example I-01], the Efficacy in % (Phakopsora pachyrhizi) was 95%, the Efficacy in % (Venturia inaequalis) was 98% and the chromatographic logP [1] was 3.57.

For `OC(Cn1cncn1)(c1ccc(F)cc1F)C1(Oc2c(F)cc(Br)cc2F)CC1` (racemic) [Example I-03], the Efficacy in % (Phakopsora pachyrhizi) was 89%, the Efficacy in % (Venturia inaequalis) was 93% and the chromatographic logP [1] was 3.7.

`OC(Cn1cncn1)(c1ccc(F)cc1)C1(Oc2ccc(Cl)cc2Cl)CC1` (stereo not shown) [DE-A 3522440 Ex. I-44, reference compound] gave an Efficacy in % (Phakopsora pachyrhizi) of 15% and an Efficacy in % (Venturia inaequalis) of 0%.

With `OC(Cn1cncn1)(c1ccc(F)cc1F)C1(Oc2ccccc2)CC1` (stereo not shown) [DE-A 3522440 Ex. I-134, reference compound] the Efficacy in % (Phakopsora pachyrhizi) was 0% and the Efficacy in % (Venturia inaequalis) was 76%.
